Tests used:
Assay type in all cases: in vivo, human
[1] = system: patients with cancer-related psychiatric and existential distress; test: Secondary questionnaire domains (social relationships, environmental, physical, psychological health), long-term follow-up; conditions: single 0.3 mg/kg dose with psychotherapy; for Psychological health: baseline 13.58; for Social relationships: baseline 13.91; for Physical health: baseline 15.00; for Environmental health: baseline 15.50
Procedure: (§1) The present example assesses the long-term effects of a single dose of psilocybin (0.3 mg/kg) in conjunction with psychotherapy in patients with cancer-related psychiatric and existential distress.
(§2) 29 participants were randomly assigned to one of two groups: psilocybin (0.3 mg/kg) on the first medication session followed by niacin (250 mg) on the second session (i.e. psilocybin-first group), or niacin (250 mg) on the first medication session followed by psilocybin (0.3 mg/kg) on the second session (i.e. niacin-first group). Psilocybin and niacin were administered in identically appearing gelatin capsules.
(§3) Participants received three 2-hour preparatory psychotherapy sessions in order to review the purpose and intention of participation in the study, treatment goals, and structure of the treatment sessions. Medications were administered in 8-hour treatment sessions which included a discussion of the participant's subjective experience with the treatment team to consolidate the memory of the experience and to begin the process of post-integrative psychotherapy. Participants also received three 2-hour post-medication integration sessions (repeated after the second dosing session) to further consolidate the memory of the experience and to continue the process of psychological integration. All psychotherapy treatment sessions were delivered by a dyadic therapy team trained in a blend of psychotherapies with an evidence base to support their use in cancer patients (drawing upon principles of palliative care therapy, existential psychotherapy, cognitive-behavioural therapy, psychoanalysis therapy, and transpersonal psychology) and were taught about the safety and clinical pharmacology of psilocybin. Each therapy dyad underwent six confidential one-to-one sessions to build their alliance and exchange ideas about psychedelic therapy. The trial employed a crossover design at seven weeks following the first drug administration, with an outcome assessment at 6.5 months (26 weeks) following the second drug administration (i.e. after the crossover).
(§4) Two long-term follow ups (LTFUs) were carried out to assess the continued effect of psilocybin. Of the original 29 participants, all 16 participants who were not deceased at the time of LTFU were contacted (the remaining 13 participants were deceased). Of the 16 participants who were contacted, 15 agreed to participate in the LTFU and completed measures through a secure online portal. One participant died (from cancer-related complications) after completing the first LTFU and prior to the second LTFU, leaving us with 14 participants at the second LTFU. The first and second LTFUs occurred on average 3.2 years (range 2.3-4.5 years) and 4.5 years (range 3.5-5.5 years) following the participants' psilocybin dosing date, respectively.
(§5) Regarding all analyses for both the primary and secondary outcome assessments, both the psilocybin-first and niacin-first dose sequence groups were collapsed and combined into one group. Reasons for this decision included the crossover design, which prevented valid between-group comparisons subsequent to the crossover, and a need to increase power given the modest sample size.
The long-terms effects of psilocybin on variables of interest were evaluated using four repeated measures regressions, estimated within the mixed effect repeated measurement (MMRM) model. Planned within-subject t-tests (Tukey's post-hoc) were conducted comparing scores at baseline to the following time points for primary and secondary outcomes: 6.5 months after the second medication session, and the first and second LTFU points. Planned within subject t-tests were also conducted comparing scores at parent study endpoint (6.5 months) to the two LTFU points.

[2] = system: patients with cancer-related psychiatric and existential distress; test: Functional Assessment of Chronic Illness Therapy-Spiritual Well-Being (FACIT-Sp-12), long-term follow-up; conditions: for Faith / Meaning/peace / Spiritual well-being: single 0.3 mg/kg dose with psychotherapy; for Faith: baseline 6.75; for Meaning/peace: baseline 19.43; for Spiritual well-being: baseline 55.69
Procedure: as §1, §2, §3, §4
Spirituality was assessed using the Functional Assessment of Chronic Illness Therapy-Spiritual Well-Being (FACIT-Sp-12; Bredle et al., 2011). This is a 12-item measure of spiritual well-being among individuals with cancer and other forms of chronic illness. Items are rated on a five-point Likert scale. The measure yields three subscales: a sense of meaning/peace in life, a sense of comfort from one's faith, and total spiritual well-being score. Total scores for each subscale range from 0-32, 0-16, and 0-48, respectively. Data have not been published regarding recommended cutoff scores for this measure. This measure has shown good reliability (Cronbach's a ranging from 0.81-0.88) and has been well validated (Bredle et al. 2011).
as §5, with “size. […]” for “size.”

[3] = system: patients with cancer-related psychiatric and existential distress; test: Death Anxiety Scale (DAS), long-term follow-up; conditions: single 0.3 mg/kg dose with psychotherapy, baseline 8.06
Procedure: as §1, §2
as §3, with “Each therapy dyad underwent six confidential one-to-one sessions to build their alliance and exchange ideas about psychedelic therapy. The trial employed a crossover design at seven weeks following the first drug administration, with an outcome assessment at 6.5 months (26 weeks) following the second drug administration (i.e. after the crossover).” left out
(§6) Cancer-related existential distress (demoralization, hopelessness, attitudes and effects associated with disease progression and death) was assessed using the following methods: • The Death Anxiety Scale (DAS) (Templer, 1970)—a 15-item measure that has been used most frequently to assess death anxiety. Items are scored “true” and “false” and then scored as one and zero, respectively. […]

[4] = system: patients with cancer-related psychiatric and existential distress; test: Persisting Effects Questionnaire at second long-term follow-up; conditions: second LTFU (4.5 years, n=14)
Procedure: as §2, §3
as §4, with “The first and second LTFUs occurred on average 3.2 years (range 2.3-4.5 years) and 4.5 years (range 3.5-5.5 years) following the participants' psilocybin dosing date, respectively.” left out
Persisting effects of psilocybin were assessed using the Persisting Effects Questionnaire (Griffiths et al., 2006, 2008) assesses self-rated changes in one's attitude, mood, behavior, and experience of spirituality. […]

[5] = system: patients with cancer-related psychiatric and existential distress; test: Hopelessness Assessment in Illness (HAI), long-term follow-up; conditions: for Hopelessness: single 0.3 mg/kg dose with psychotherapy, baseline 5.75, p < 0.001 vs baseline
Procedure: as §1, §2, §3
Two long-term follow ups (LTFUs) were carried out to assess the continued effect of psilocybin. Of the original 29 participants, all 16 participants who were not deceased at the time of LTFU were contacted (the remaining 13 participants were deceased). […]
as §6

[6] = mean score at 3.2 years, p < 0.01 vs baseline
[7] = mean score at 3.2 years, p < 0.05 vs baseline
[8] = mean score at 4.5 years, p < 0.05 vs baseline
[9] = mean score at 6.5-8 months, p < 0.001 vs baseline
[10] = mean score at 6.5-8 months, p < 0.05 vs baseline
[11] = mean score at 6.5-8 months, p < 0.01 vs baseline

Compound: CN(C)CCc1c[nH]c2cccc(OP(=O)(O)O)c12 [psilocybin, [3-(2-dimethylaminoethyl)-1H-indol-4-yl] dihydrogen phosphate]
- Psychological health [1, 6]: 15.48
- Social relationships ([1]; mean score at 3.2 years): 15.54
- Physical health ([1]; mean score at 3.2 years): 16.33
- Environmental health [1, 7]: 16.72
- Psychological health ([1]; mean score at 4.5 years): 14.80
- Social relationships ([1]; mean score at 4.5 years): 14.67
- Physical health ([1]; mean score at 4.5 years): 13.89
- Environmental health [1, 8]: 17.00
- Psychological health [1, 9]: 15.70
- Social relationships ([1]; mean score at 6.5-8 months): 15.27
- Physical health [1, 10]: 16.35
- Environmental health [1, 10]: 16.54
- Faith [2, 7]: 9.31
- Meaning/peace ([2]; mean score at 3.2 years): 19.27
- Spiritual well-being ([2]; mean score at 3.2 years): 59.85
- Faith ([2]; mean score at 4.5 years, p < 0.01 vs baseline): 10.43
- Meaning/peace ([2]; mean score at 4.5 years): 20.20
- Spiritual well-being [2, 8]: 65.04
- Faith [2, 11]: 9.77
- Meaning/peace [2, 9]: 26.34
- Spiritual well-being [2, 9]: 70.58
- spiritual well-being and faith domains (FACIT-Sp-12) relative to baseline ([2]; second LTFU): significant improvements
- Death anxiety [3, 6]: 5.68
- Death anxiety [3, 8]: 5.75
- Death anxiety [3, 11]: 6.09
- participants appraising the psilocybin session as increasing life satisfaction or wellbeing [4]: 86%
- participants rating the psilocybin experience the single or top-five most personally meaningful experience(s) of their lives [4]: Seventy-one
- participants rating the psilocybin experience the single or top-five most spiritually significant experience(s) of their lives [4]: ninety-six
- volunteers reporting moderate, strong or extreme positive behavioral change attributed to the psilocybin experience [4]: 100%
- correlation (r) of length of time between psilocybin session and follow-up with HAI hopelessness change score ([5]; Spearman, second LTFU subtracted from two-weeks post-psilocybin dose scores, p<0.01): 0.69
- Hopelessness ([5]; mean score at 3.2 years): 2.29
- Hopelessness ([5]; mean score at 4.5 years): 1.65
- Hopelessness ([5]; mean score at 6.5-8 months): 1.65

— patent US20220151993A1, “TREATMENT OF ANXIETY AND DEPRESSION” (NEW YORK UNIVERSITY, priority 2020, published 2022)
